Columns and labels:
human wild-type pendrin = target: T1, human wild-type pendrin (Homo sapiens, UniProt O43511); experiment: Pendrin Cl−/SCN− exchange activity in human alveolar epithelial cells (hAEC) overexpressing pendrin; format: cell-based; conditions: 0.3 μM to 30 μM, read-out: IC50 of human wild-type pendrin-mediated Cl−/SCN− exchange activity
T1 construct: expressed in transfected cells; host or cells: human alveolar epithelial cells (hAEC) overexpressing pendrin
T1 sequence (O43511 1-780): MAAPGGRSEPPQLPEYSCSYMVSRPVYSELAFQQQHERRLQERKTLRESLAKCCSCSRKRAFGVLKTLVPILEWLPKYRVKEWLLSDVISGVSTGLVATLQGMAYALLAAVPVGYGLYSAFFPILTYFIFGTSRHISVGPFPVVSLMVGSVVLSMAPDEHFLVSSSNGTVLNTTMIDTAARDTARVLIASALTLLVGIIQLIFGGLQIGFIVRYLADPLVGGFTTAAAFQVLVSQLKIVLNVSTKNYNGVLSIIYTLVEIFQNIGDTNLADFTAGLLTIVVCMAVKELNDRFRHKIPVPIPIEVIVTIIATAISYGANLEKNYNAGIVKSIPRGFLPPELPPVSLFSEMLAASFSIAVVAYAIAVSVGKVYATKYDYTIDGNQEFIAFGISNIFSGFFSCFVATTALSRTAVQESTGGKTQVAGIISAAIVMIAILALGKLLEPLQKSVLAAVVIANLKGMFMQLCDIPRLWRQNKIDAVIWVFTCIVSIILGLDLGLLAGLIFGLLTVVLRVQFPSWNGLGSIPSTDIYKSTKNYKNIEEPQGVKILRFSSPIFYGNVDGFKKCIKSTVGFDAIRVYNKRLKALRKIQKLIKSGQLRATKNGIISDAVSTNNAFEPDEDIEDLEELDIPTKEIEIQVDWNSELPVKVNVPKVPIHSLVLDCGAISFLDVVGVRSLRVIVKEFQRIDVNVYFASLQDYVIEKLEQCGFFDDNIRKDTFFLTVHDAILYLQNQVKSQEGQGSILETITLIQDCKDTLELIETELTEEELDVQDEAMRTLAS
Experimental: In FIG. 13a, human alveolar epithelial cells (hAEC) overexpressing pendrin were treated with YPI-A4948 as a novel pendrin inhibitor from 0.3 μM to 30 μM, and the Cl^−/SCN^− exchange ability of SLC26A4 was measured by the change in YFP fluorescence when compared to before YPI-A4948 treatment. The IC50 of human wild-type pendrin-mediated Cl^−/SCN^− exchange activity was confirmed to be 0.9 μM.

[1] = test system: LPS-induced lung injury model; experiment: LPS-induced lung injury model in mice, i.v. treatment after LPS; format: in vivo, C57BL/6N mice
Experimental: Lipid polysaccharide (LPS, 200 μg/head) dissolved in 50 μL PBS was injected intranasally into C57BL/6N mice. YPI-A4948 (1, 10 μg/kg) was administered intravenously twice in total at 6 hours and 12 hours after LPS injection, and the mice were euthanized at 24 hours after LPS inhalation to remove the lungs. Immune cell recruitment was confirmed through bronchoalveolar lavage fluid (BALF) obtained by injecting 1 mL of PBS into the removed lung and then re-extracting the PBS. Lung injury parameters were measured by ELISA after lysing lung tissue. The expression level of pendrin protein was confirmed by Western blot, and this was digitalized and measured using a shade measuring instrument (mean±SEM, n=3 per group). Pendrin mRNA levels were determined by real-time quantitative PCR in extracted lung tissue (mean±SEM, n=3 per group). IL-10, MIP-2, IL-6, and TNF-α levels were measured by ELISA in lung tissue lysates (mean±SEM n=4-7 mice per group).

SLC26A6 = target: T2, SLC26A6 (Homo sapiens, UniProt Q9BXS9); experiment: SLC26A6 activity, YFP fluorescence in LN-215 cells; format: cell-based; conditions: FIG. 16
T2 construct: expressed in transfected cells
T2 sequence (Q9BXS9 1-759): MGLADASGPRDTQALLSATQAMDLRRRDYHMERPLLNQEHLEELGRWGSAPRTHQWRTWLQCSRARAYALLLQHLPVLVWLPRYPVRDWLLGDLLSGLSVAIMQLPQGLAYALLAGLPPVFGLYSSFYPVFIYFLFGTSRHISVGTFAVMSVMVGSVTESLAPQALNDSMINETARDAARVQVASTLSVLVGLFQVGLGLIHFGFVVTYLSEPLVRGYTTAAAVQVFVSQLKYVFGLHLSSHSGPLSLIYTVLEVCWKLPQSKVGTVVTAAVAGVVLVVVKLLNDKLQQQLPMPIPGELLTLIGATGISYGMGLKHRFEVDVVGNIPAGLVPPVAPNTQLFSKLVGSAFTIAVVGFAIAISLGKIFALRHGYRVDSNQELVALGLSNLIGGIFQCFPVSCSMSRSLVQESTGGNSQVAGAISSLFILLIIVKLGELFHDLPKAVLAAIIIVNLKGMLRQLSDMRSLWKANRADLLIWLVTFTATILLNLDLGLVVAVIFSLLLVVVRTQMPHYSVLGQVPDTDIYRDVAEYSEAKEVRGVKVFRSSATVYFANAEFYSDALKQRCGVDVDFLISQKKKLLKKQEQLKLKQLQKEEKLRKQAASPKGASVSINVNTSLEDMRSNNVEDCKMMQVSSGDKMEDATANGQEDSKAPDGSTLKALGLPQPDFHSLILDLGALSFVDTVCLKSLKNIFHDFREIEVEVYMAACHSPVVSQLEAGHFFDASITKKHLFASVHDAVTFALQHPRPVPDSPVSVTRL
Experimental: In the case of SLC26A3 and SLC26A6, each transporter protein and halide sensitive YFP were expressed in LN-215 cells to measure the activity of the transporter protein.
Other details were carried out in the same manner as Example 5.

[2] = test system: human nasal epithelial cells (HNE); experiment: Volume of airway surface liquid (ASL) in IL-4-treated differentiated human nasal epithelial cells; format: cell-based; conditions: 30 μM, IL-4 10 ng/ml, 48 hours
Experimental: For differentiation of primary cultures of human nasal epithelial cells, cells were cultured in Transwell (Transwell, Costar Co., Cambridge, MA) with 0.45 µm pores at a density of 2×10^5 cells/cm^2. Cells were cultured in a 1:1 mixed culture medium of Dulbecco's modified Eagle's medium (Lonza) and bronchial epithelial growth medium (Lonza) supplemented with the following growth factors, while changing the medium every 2 to 3 days. The cells were cultured in a precipitated state in the culture medium for the first 7 days, and during the subsequent culture period, and cultured by exposing the upper part of transwell to air. After establishment of the air-liquid interface (ALI), cells were cultured and differentiated for 21 days. At all stages of culture, the cell culture medium was maintained at 5% CO2 and 37° C.
Vehicle, IL-4 (10 ng/ml), and YPI-H05 (30 μM) were added to the basal fluid of transwell in which differentiated NHE cells expressing normal pendrin were growing, and cultured at 37° C. under 5% CO2 in an incubator for 48 hours. After cultured, a round filter paper with a diameter of 10 mm was placed in the lumen side of the transwell and left for 10 seconds to absorb moisture from the airway surface liquid. Changes in the volume of airway surface liquid were measured through increased filter paper weight using a precision electronic balance.

[3] = i.v. 1, 10 μg/kg at 6 and 12 h after LPS, vs LPS only

Compound	IC50 (human wild-type pendrin) [nM]	Lung inflammatory cytokine IL-6 ([1]; ELISA in lung tissue lysates)	Lung inflammatory cytokine IL-10 ([1]; ELISA in lung tissue lysates)	Lung inflammatory cytokine MIP-2 ([1]; ELISA in lung tissue lysates)	Lung inflammatory cytokine TNF-α ([1]; ELISA in lung tissue lysates)	BALF protein concentration [1, 3]	BALF total cell counts [1, 3]	Level of pendrin mRNA in lung [1, 3]	Level of pendrin protein in lung [1, 3]	Effect on activity of SLC26A6 (SLC26A6)	Volume of airway surface liquid (ASL) reduced by IL-4 [2]
Cc1ccc2[nH]c(C(=O)O)c(CC(=O)N3CCN(c4c(C)cccc4Cl)CC3)c2c1 [YPI-A4948, 3-(2-(4-(2-Chloro-6-methylphenyl)piperazin-1-yl)-2-oxoethyl)-5-methyl-1H-indole-2-carboxylic acid]	900	statistically significantly reduced	statistically significantly reduced	statistically significantly reduced	statistically significantly reduced	significantly reduced	significantly reduced	significantly reduced	significantly reduced	did not inhibit	
Cc1ccc(C)c(N2CCN(C(=O)Cc3c(C(=O)O)[nH]c4ccc(Cl)cc34)CC2)c1 [YPI-H05, 5-chloro-3-(2-(4-(2,5-dimethylphenyl)piperazin-1-yl-)-2-oxoethyl)-1H-indole-2-carboxylic acid]											significantly increased

Reference: patent publication US20240287042A1, “NOVEL COMPOUND HAVING INHIBITORY ACTIVITY AGAINST PENDRIN, AND PHARMACEUTICAL USES THEREOF” (UIF (University Industry Foundation), Yonsei University, priority 2021, published 2024)
